The source of these data is patent publication US20140086827A1, “Serum S100B And Uses Thereof” (THE CLEVELAND CLINIC FOUNDATION, priority 2011, published 2014).

Entries after “also recorded” stand apart in the source; their conditions may differ. Read-outs that look alike come from different tables or passages of the source.

Assay [1] deals with pilocarpine-induced SE. The assay can be described thus: Pilocarpine-induced status epilepticus in rats (EEG, Racine's scale, mortality). The format is in vivo, rat. The conditions noted are these: for time to onset of SE: rats that developed SE. The protocol:
Rats (male Sprague-Dawley 225-250 g) were injected with methylscopolamine (0.5 mg/kg, i.p., Sigma-Aldrich) and 30 minutes after with pilocarpine (340 mg/Kg, Sigma-Aldrich). Data obtained from a total of 45 rats was analyzed (see also FIG. 14B). Development of seizure and status epilepticus was evaluated by behavioral (Racine's scale) and EEG assessment. […] IL-RA data included here are relative to [Marchi N., et al. (2009) Neurobiol Dis 33: 171-181]. IL-RA was administrated in the tail vein (30 μg/kg) 2 hours before scopolamine/pilocarpine treatment.
Note that blood samples were taken at baseline, after each treatment and immediately before (or at onset) of status epilepticus (SE), as evaluated by EEG and behavioral (Racine's Scale) assessments. This methodology has been used in the past to evaluate the presence of BBB damage and inflammatory process preceding seizure onset [Uva L., et al. (2008) Neuroscience 151: 303-312].
Stereotactic electrode implantation was performed in rats under isofluorane anaesthesia, using the Kopf stereotactic frame. Approximately, half of the rats used were implanted. Four stainless steel screws (MX-0090-2, Small Parts Inc., Miami, Fla.) were placed bilaterally on the dura mater of the fronto-parietal cortex. A prefabricated Pinnacle pre-amplifier was connected to the screws. The system has three bio-potential channels—2 EEG and 1 EMG. Prefabricated head implants (Pinnacle Inc., USA) ensured accurate electrode positioning and reliable, robust contacts. Cable artifacts are eliminated by pre-amplification of the EEG and EMG waveforms at the animal's head. EEG data were sampled a rate of 200 Hz. All data are transferred via a USB connection to a PC. Rats were left unrestrained for 2 weeks to recovery from surgery before EEG recordings were performed. Each rat was kept in a separate cage under 12-hours dark-light cycles with free access to food and water. Origin Microcal 7.0 and Diadem (National Instruments) was used in conjunction to the acquisition system for data analysis (e.g., time joint frequency analysis).

Assay [2] concerns CD3+ T-lymphocytes. Kind of assay: FACS analysis of circulating T-lymphocytes in rat blood. The format is in vivo. The conditions noted are these: after dexamethasone treatment, rats. The method, then: (§1) The schedule of blood sampling is illustrated in FIG. 14A. Blood was collected from the tail vein using a fixed catheter (Venisystem, Abbocath, 22 G, 300-500 μl/sample). For FACS analysis, 150 μL of whole blood were incubated with a combination of specific antibodies recognizing T-cell subpopulation (CD3+). In particular mouse anti-rat CD8a-FITC, CD3-R-PE and CD4-PE-Cy5 (BD-Pharmingen) were added (2 μL, 5 μL and 5 μL respectively) to blood samples. Blood samples were analyzed by the FACS-Core facility at the Cleveland Clinic. IL-1β ELISA-tests was purchased from Pierce Biotechnology Inc. and performed as described by the vendor.
Background: In flow cytometry, cells or beads pass a laser one at a time.

For assay [3], the system named is IL-1β. Kind of assay: Serum IL-1β ELISA in rats. Type of assay: in vivo, rat. The conditions noted are these: dexamethasone treatment. The protocol: as §1
Assay [4] relates to drug-resistant epileptic seizures. Kind of assay: Add-on glucocorticosteroid or ACTH treatment in pediatric drug resistant epilepsy (review of clinical data). The format is in vivo, human. Conditions: for occurrence of seizures (seizure burden vs baseline): add-on treatment, pediatric drug resistant epilepsy, 53 treatments. The method, then:
The study was conducted according to the Declaration of Helsinki Criteria and to the procedures for compassionate drug administration approved by the Ethic Committees of Carlo Besta Institute (Milan, Italy). Oral informed consent from was obtained from parents by specialized neurologists. Administration of GCs was considered compassion care since all patients had intractable life threatening seizures. The clinical data of 43 patients (Table 4) of the Carlo Besta Neurological Institute (Milan, Italy) was reviewed. […] Patients with a history of epileptic syndromes known to respond to steroids (i.e., West, Lennox-Gastaut, Landau-Kleffner and Rasmussen encephalitis) as well as patients affected by documented inflammatory brain disease were excluded. All the subjects received steroid treatment on an in-patient basis.
Patients received GCs or ACTH therapy because of one of the following: 1) >50% increase in seizure frequency; 2) development of non-convulsive status epilepticus; 3) presence of epilepsia partialis continua (EPC). Before GCs or ATCH treatment, patients were evaluated by a team of neurologists, physiologists, and underwent EEG and routine laboratory examinations. Antiepileptic treatments were maintained during the steroid course (Table 4).
Steroidal treatment was, when successful, repeated in case of seizure recurrence. […] GCs or ATCH therapy was considered successful when: 1) seizure frequency decreased by 50%; 2) status epilepticus was stopped; 3) or when epilepsia partialis continua (EPC) was stopped/reduced enough to allow voluntary movement in the affected body district. Duration of treatment was limited to acute dosing, which was repeated when the initial response was beneficial. The effects of length of treatments and efficacy/toxicity of chronic use are not presented herein, since this study design only addressed a proof of principle use of steroids in pediatric epilepsy.

For assay [5], the system named is seizures. Conditions: drug-resistant children, Araki 2006; cited from earlier work.
In assay [6] the test system is pilocarpine-induced SE. The conditions noted are these: data from Marchi 2009, cited from earlier work.
Assay [7] relates to blood-brain barrier. The conditions noted are these: IL-RA pre-treatment; previously reported; cited from earlier work.
Setting [8] is: dexamethasone pre-treatment, vs pilocarpine alone.

In the case of `C[C@@H]1C[C@H]2[C@@H]3CCC4=CC(=O)C=C[C@]4(C)[C@@]3(F)[C@@H](O)C[C@]2(C)[C@@]1(O)C(=O)CO` [dexamethasone], in assay [1] (setting [8]), the “time to onset of SE” value was “significantly delayed”; the “early EEG burst clusters (time-joint frequency analysis)” value was “reduced in amplitude and frequency”. Moreover, the “time to onset of SE” value in assay [1] (dexamethasone pre-treatment, vs pilocarpine alone, listed as Dexa) is recorded as “delayed”. In addition, in assay [1] (dexamethasone pre-treatment, seizures not stopped with barbiturates), the “mortality associated with pilocarpine SE (twelve hours)” value is reported as “significantly decreased; also recorded: abolishes mortality; also recorded: reduced mortality; also recorded: abolished”. The “effects of single dosage of 1 mg/day on pilocarpine seizures” value in assay [1] (single dosage of 1 mg/day) is reported as “did not exert any discernable effects”. In assay [2], the “number of circulating CD3+ T-lymphocytes” value was “drastic reduction; also recorded: drastic decrease” and the “relative percentage of CD8+ subpopulation among CD3+ cells” value is “significantly affected”. Further, the “serum IL1-β levels” value in assay [3] is on record as “reduced”. Further, the “serum IL1-β levels” value in assay [3] (listed as Dexamethasone) was “significantly reduced”. In addition, in assay [4], the “occurrence of seizures (seizure burden vs baseline)” value is recorded as “significantly reduced”. Moreover, in assay [4] (patient after dexamethasone treatment, concurrent with seizure reduction), the “MRI FLAIR hyperintensity” value is “decrease in FLAIR hyperintensity”. For the same compound, in assay [5], the “seizure frequency vs untreated patients” value is given as “reduced seizure frequency”.
With `C[C@]12CCC(=O)C=C1CC[C@@H]1[C@@H]2[C@@H](O)C[C@@]2(C)[C@H]1CC[C@]2(O)C(=O)CO` [hydrocortisone], the “blood-brain barrier function and seizure frequency in epileptic patients receiving anti-inflammatory therapy” value in assay [4] (epileptic patients, clinical dosage) is “comparable effects”.
As to “IL-RA: IL-1 receptor antagonist, data from Marchi 2009”, the “early EEG burst clusters (time-joint frequency analysis)” value in assay [6] (IL1-RA pre-treatment) was “reduced in amplitude and frequency”. The “number of rats developing SE / seizure occurrence” value in assay [6] (IL-RA 30 μg/kg tail vein 2 hours before scopolamine/pilocarpine) was “reduces seizure occurrence”. Also, in assay [6] (IL-RA pre-treatment), the “mortality associated with pilocarpine seizures (twelve hours)” value is listed as “decreased” and the “time to onset of SE” value is “delayed”. In addition, the “pilocarpine-induced BBB damage” value in assay [7] is recorded as “prevents BBB damage”.
“adrenocorticotropic hormone (SYSMEHFRWGKPVGKKRRPVKVYPNGAEDESAEAFPLEF; Corticotropin; UniProt P01189 138-176, looked up) [ACTH]”: the “occurrence of seizures (seizure burden vs baseline)” value in assay [4] is listed as “significantly reduced”.
